# In PMC3890260 (Chemical science (Royal Society of Chemistry : 2010), 2013):
# Key:
# [1] = molecular target: T1, V. cholerae CqsS receptor (Vibrio cholerae serotype O1, UniProt Q9KM66); experiment: CqsS agonist bioassay; type: cell-based
# [2] = molecular target: T1, V. cholerae CqsS receptor; conditions: cited from earlier work
# T1 sequence (Q9KM66 whole entry, looked up): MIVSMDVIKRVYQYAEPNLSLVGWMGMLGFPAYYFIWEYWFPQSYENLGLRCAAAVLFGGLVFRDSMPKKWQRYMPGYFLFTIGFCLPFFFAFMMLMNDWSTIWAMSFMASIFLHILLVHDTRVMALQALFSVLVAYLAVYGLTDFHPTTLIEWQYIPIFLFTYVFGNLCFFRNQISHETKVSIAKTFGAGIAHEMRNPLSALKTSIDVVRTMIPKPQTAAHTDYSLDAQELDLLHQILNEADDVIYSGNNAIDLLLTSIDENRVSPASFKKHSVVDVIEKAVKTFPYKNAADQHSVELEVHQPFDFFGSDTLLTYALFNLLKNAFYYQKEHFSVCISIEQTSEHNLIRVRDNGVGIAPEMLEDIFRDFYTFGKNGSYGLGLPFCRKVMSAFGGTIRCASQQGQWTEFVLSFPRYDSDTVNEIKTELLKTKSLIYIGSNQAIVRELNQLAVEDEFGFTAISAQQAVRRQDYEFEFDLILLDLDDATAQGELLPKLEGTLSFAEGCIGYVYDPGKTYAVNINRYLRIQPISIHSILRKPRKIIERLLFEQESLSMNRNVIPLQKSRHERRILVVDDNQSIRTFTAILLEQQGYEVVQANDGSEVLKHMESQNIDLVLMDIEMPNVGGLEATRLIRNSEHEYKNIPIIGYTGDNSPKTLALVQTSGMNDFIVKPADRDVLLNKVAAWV
smiles,measurement,setting,value
C/C=C(\N)C(=O)CCCCCCCCC [Ea-CAI-1],EC50,"[1]; CqsS agonist bioassay, mean of triplicate analyses",4.1 nM
same,% Response (percent maximal bioluminescence with respect to Ea-CAI-1),[1]; Ea-CAI-1 set at 100%,100%
same,potency as CqsS agonist compared to CAI-1,[2],an order of magnitude more potent
